# Assay results published in patent US20160158200A1, “Combinations of Hepatitis C Virus Inhibitors” (priority 2013, published 2016).
# Test system: HCV genotype-1a variant with glutamine 30 changed to glutamate in the NS5A protein
# Format: cell-based
# Conditions: test compound titrated with BMS-790052 fixed at 200 nM; genotype 1a Q30E replicon
# Method in brief: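 Synergy was assessed by combining several fixed amounts of an NS5A-targeting compound with a titration of the second compound of interest.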
row,Compound,Fold-Synergistic 1a (Q30E)
1,CC(C)(C)[C@H](NC(=O)C1(C(F)(F)F)CC1)c1nc(-c2ccc(-c3ccc(-c4c[nH]c([C@@H](NC(=O)C5(C(F)(F)F)CC5)C(C)(C)C)n4)cc3)cc2)c[nH]1 [Compound P-30],>100 fold
2,CC(C)[C@H](NC(=O)CCCn1ccnc1)c1ncc(-c2ccc(-c3ccc(-c4cnc([C@@H](NC(=O)CCCn5ccnc5)C(C)C)[nH]4)cc3)cc2)[nH]1 [Compound S-58],<10 fold
3,CC(C)(C)[C@H](NC(=O)C1CCC(F)(F)CC1)c1nc2ccc(C#CC#Cc3ccc4nc([C@@H](NC(=O)C5CCC(F)(F)CC5)C(C)(C)C)[nH]c4c3)cc2[nH]1 [Compound B46],>100 fold
4,CC(C)(C)[C@H](NC(=O)C1(C2(O)CCC(F)(F)CC2)CC1)c1ncc(-c2ccc(C#Cc3ccc4nc([C@@H](NC(=O)C5(C6(O)CCC(F)(F)CC6)CC5)C(C)(C)C)[nH]c4c3)cc2)[nH]1 [Compound B48B],>100 fold
5,CC(C)(C)[C@H](NC(=O)C1(CO)CCC(F)(F)CC1)c1nc(-c2ccc(-c3ccc(-c4c[nH]c([C@@H](NC(=O)C5(CO)CCC(F)(F)CC5)C(C)(C)C)n4)cc3)cc2)c[nH]1 [Compound P-37],>100 fold
6,CC(C)[C@H](NC(=O)OCC(C)(C)C)c1ncc(-c2ccc(-c3ccc(-c4cnc([C@@H](NC(=O)OCC(C)(C)C)C(C)C)[nH]4)cc3)cc2)[nH]1 [Compound S-210],>100 fold
7,O=C(c1ccc2c(c1)OCO2)N1CCC[C@H]1c1ncc(-c2ccc(-c3ccc(-c4cnc([C@@H]5CCCN5C(=O)c5ccc6c(c5)OCO6)[nH]4)cc3)cc2)[nH]1 [Compound S-121],<10 fold
8,CC1(C)CCN(C(=O)c2cccc3ccccc23)C1c1nc(-c2ccc(-c3ccc(-c4c[nH]c(C5N(C(=O)c6cccc7ccccc67)CCC5(C)C)n4)cc3)cc2)c[nH]1 (stereo not drawn) [Compound W-225],<10 fold
9,CC(C)(OCCF)C(=O)N[C@H](c1nc(-c2ccc(-c3ccc(-c4c[nH]c([C@@H](NC(=O)C(C)(C)OCCF)C(C)(C)C)n4)cc3)cc2)c[nH]1)C(C)(C)C [Compound Y-3],>100 fold
10,"CC(C)[C@H](NC(=O)C1CCCCO1)c1ncc(-c2ccc(-c3ccc(-c4cnc([C@@H](NC(=O)C5CCCCO5)C(C)C)[nH]4)cc3)cc2)[nH]1 (single isomer, unassigned) [Compound Y-57]",>100 fold
11,CC(C)(NC(=O)CC(F)(F)F)C(=O)N[C@H](c1nc(-c2ccc(-c3ccc(-c4c[nH]c([C@@H](NC(=O)C(C)(C)NC(=O)CC(F)(F)F)C(C)(C)C)n4)cc3)cc2)c[nH]1)C(C)(C)C [Compound L-144],>100 fold
12,CC(C)[C@H](NC(=O)C1CCC(F)(F)CC1)c1ncc(-c2ccc(-c3ccc(-c4cnc([C@@H](NC(=O)C(C)(C)C)C(C)C)[nH]4)cc3)cc2)[nH]1 [Compound Y-52],>100 fold
13,"CC1(C)C2CCC(C(=O)N[C@H](c3nc(-c4ccc(-c5ccc(-c6c[nH]c([C@@H](NC(=O)C78CCC(C7)C(C)(C)C8O)C7(C)CC7)n6)cc5)cc4)c[nH]3)C3(C)CC3)(C2)C1O (single isomer, unassigned) [Compound Y-117]",>100 fold
14,Cc1cc(-c2c[nH]c(C3CC[C@H](C)N3C(=O)C(=O)N3CCC(F)(F)CC3)n2)ccc1-c1ccc(-c2c[nH]c(C3CC[C@H](C)N3C(=O)C(=O)N3CCC(F)(F)CC3)n2)cc1 (stereo partly drawn) [Compound W-242],>100 fold
15,CC(C)C(NC(=O)C(=O)N1CCCCCC1)c1nc(-c2ccc(-c3ccc(-c4c[nH]c(C(NC(=O)C(=O)N5CCCCCC5)C(C)C)n4)cc3)cc2)c[nH]1 (stereo not drawn) [Compound W-52],>100 fold
16,CC(C)N(CC(F)(F)F)C(=O)C(=O)N1CCC(C)(C)C1c1nc(-c2ccc(-c3ccc(-c4c[nH]c(C5N(C(=O)C(=O)N(CC(F)(F)F)C(C)C)CCC5(C)C)n4)cc3)cc2)c[nH]1 (stereo not drawn) [Compound W-236],>100 fold
17,COC(=O)NN(C(=O)[C@@H]1CCC[C@H]1c1nc(-c2ccc(-c3ccc(-c4cnc([C@@H]5CCC[C@H]5C(=O)N(NC(=O)OC)C(C)C)[nH]4)cc3)cc2)c[nH]1)C(C)C [Compound V-1],>100 fold
18,CC(C)OC(=O)N1C2CCC1(C(=O)N[C@H](c1nc(-c3ccc(-c4ccc(-c5c[nH]c([C@@H](NC(=O)C67CCC(CC6)N7C(=O)OC(C)C)C(C)(C)C)n5)cc4)cc3)c[nH]1)C(C)(C)C)CC2.O=C(O)C(F)(F)F.O=C(O)C(F)(F)F [Compound W-118],>100 fold
19,COCC(=O)NC1(C(=O)N[C@H](c2nc(-c3ccc(-c4ccc(-c5c[nH]c([C@@H](NC(=O)C6(NC(=O)COC)CCCCC6)C(C)(C)C)n5)cc4)cc3)c[nH]2)C(C)(C)C)CCCCC1 [Compound W-263],>100 fold
20,COc1cccc2c(C(=O)N3[C@@H]4C[C@@H]4C[C@H]3c3ncc(-c4ccc(-c5ccc(-c6cnc([C@@H]7C[C@H]8C[C@H]8N7C(=O)c7nc(Cl)cc8c(OC)cccc78)[nH]6)cc5)cc4)[nH]3)nc(Cl)cc12 [Compound P-49],>100 fold

row,Compound,Fold-Synergistic 1a (Q30E)
1,"CC(C)(C)C(NC(=O)C(C)(O)C(F)(F)F)c1nc(-c2ccc(-c3ccc(-c4c[nH]c(C(NC(=O)C(C)(O)C(F)(F)F)C(C)(C)C)n4)cc3)cc2)c[nH]1.O=C(O)C(F)(F)F.O=C(O)C(F)(F)F (single isomer, unassigned) [Compound L-66a]",>100 fold
2,CC(C)(C)[C@H](NC(=O)C1CCC(F)(F)CC1)c1ncc(-c2cc3cc4oc(-c5cnc([C@@H](NC(=O)C6CCC(F)(F)CC6)C(C)(C)C)[nH]5)cc4cc3o2)[nH]1 [Compound B59],>100 fold
3,CO[C@H](C)[C@H](NC(=O)[C@@]1(C)CCC(F)(F)CO1)c1nc(-c2ccc(-c3ccc(-c4c[nH]c([C@@H](NC(=O)[C@@]5(C)CCC(F)(F)CO5)[C@@H](C)OC)n4)cc3)cc2)c[nH]1 [Compound L-97],>100 fold
4,COC(C)(CO)C(=O)N[C@H](c1nc(-c2ccc(-c3ccc(-c4c[nH]c([C@@H](NC(=O)C(C)(CO)OC)C(C)(C)C)n4)cc3)cc2)c[nH]1)C(C)(C)C (stereo partly drawn) [Compound W-235],>100 fold
5,"CC1(C)CC1C(=O)N[C@H](c1ncc(-c2ccc(-c3ccc(-c4cnc([C@@H](NC(=O)C5CC5(C)C)C(C)(C)C)[nH]4)cc3)cc2)[nH]1)C(C)(C)C (single isomer, unassigned) [Compound B79]",>100 fold
6,CC(OC(=O)NC1(C(=O)NC(c2nc(-c3ccc(-c4ccc(-c5c[nH]c(C(NC(=O)C6(NC(=O)OC(C)C(F)(F)F)CC6)C6(C)CC6)n5)cc4)cc3)c[nH]2)C2(C)CC2)CC1)C(F)(F)F [Compound L-42],>100 fold
7,"CC(C)(C(=O)N[C@H](c1nc(-c2ccc(-c3ccc(-c4c[nH]c([C@@H](NC(=O)C(C)(C)C(O)c5ccccn5)C(C)(C)C)n4)cc3)cc2)c[nH]1)C(C)(C)C)C(O)c1ccccn1 (single isomer, unassigned) [Compound N-128A]",>100 fold
8,"CC(C)(C)OC(=O)NC1CCCCC1C(=O)N[C@H](c1nc(-c2ccc(-c3ccc(-c4c[nH]c([C@@H](NC(=O)C5CCCCC5NC(=O)OC(C)(C)C)C(C)(C)C)n4)cc3)cc2)c[nH]1)C(C)(C)C (single isomer, unassigned) [Compound W-23A]",>100 fold
9,CC(C)[C@H](NC(=O)CC#N)c1ncc(-c2ccc(-c3ccc(-c4cnc([C@@H](NC(=O)CC#N)C(C)C)[nH]4)cc3)cc2)[nH]1 [Compound S-29],>100 fold
10,CC(C)[C@H](NC(=O)c1ccccc1C#N)c1ncc(-c2ccc(-c3ccc(-c4cnc([C@@H](NC(=O)c5ccccc5C#N)C(C)C)[nH]4)cc3)cc2)[nH]1 [Compound S-94],>100 fold
11,CC(C)[C@H](NC(=O)C(C)(C)C)c1nc2ccc(C#Cc3ccc4nc([C@@H](NC(=O)C(C)(C)C)C(C)C)[nH]c4c3)cc2[nH]1.O=C(O)C(F)(F)F [Compound B43],>100 fold
12,CC(C)(C)C(=O)N[C@H](c1nc(-c2ccc(-c3cnc(-c4c[nH]c([C@@H](NC(=O)C(C)(C)C)C(C)(C)C)n4)cn3)cc2)c[nH]1)C(C)(C)C.O=C(O)C(F)(F)F [Compound N-105],>100 fold
13,COC(=O)N(C)C1(C(=O)N[C@H](c2nc(-c3ccc(-c4ccc(-c5c[nH]c([C@@H](NC(=O)C6(N(C)C(=O)OC)CC6)C6CC6)n5)cc4)cc3)c[nH]2)C2CC2)CC1 [Compound L-34],>100 fold
14,CC(C)[C@H](NC(=O)C(C)(C)OCC(F)F)c1nc(-c2ccc(-c3ccc(-c4c[nH]c([C@@H](NC(=O)C(C)(C)OCC(F)F)C(C)C)n4)c(F)c3)cc2)c[nH]1.O=C(O)C(F)(F)F [Compound N-91],>100 fold
15,CC(CO)(CF)C(=O)NC(c1nc(-c2ccc(-c3ccc(-c4c[nH]c(C(NC(=O)C(C)(CO)CF)C(C)(C)C)n4)cc3)cc2)c[nH]1)C(C)(C)C (mixture of isomers) [Compound N-138],>100 fold
16,"CC(C)(C(=O)N[C@H](c1nc(-c2ccc(-c3ccc(-c4c[nH]c([C@@H](NC(=O)C(C)(C)C(O)C5CCC(F)(F)CC5)C(C)(C)C)n4)cc3)cc2)c[nH]1)C(C)(C)C)C(O)C1CCC(F)(F)CC1 (single isomer, unassigned) [Compound N-143A]",>100 fold
17,CC(C)[C@H](NC(=O)[C@@]1(C)CCC(F)(F)CO1)c1nc(-c2ccc(-c3ccc(-c4c[nH]c([C@@H](NC(=O)[C@@]5(C)CCC(F)(F)CO5)C(C)C)n4)cc3F)cc2)c[nH]1 [Compound N-133],>100 fold
18,CC(C)[C@H](NC(=O)C(=O)C1CC2CCC(C1)C2(F)F)c1ncc(-c2ccc(-c3ccc(-c4cnc([C@@H](NC(=O)C(=O)C5CC6CCC(C5)C6(F)F)C(C)C)[nH]4)cc3)cc2)[nH]1 (stereo partly drawn) [Compound P-129],>100 fold
19,CC(C)[C@H](NC(=O)OCc1ccccc1)c1ncc(-c2ccc(-c3ccc(-c4cnc([C@@H](NC(=O)OCc5ccccc5)C(C)C)[nH]4)cc3)cc2)[nH]1 [Compound S-215],>100 fold
